In patent publication US7317030B2, “Compounds as inhibitors of cell proliferation and viral infections” (4SC AG, priority 2004, dated 2008):

How the values were obtained:
Kv1.3 channels = target: T1, Kv1.3 channels (Mus musculus, UniProt P16390); assay: Kv1.3 assay, whole-cell patch-clamp in stably transfected L929 cells; assay type: cell-based; conditions: c=20 μM, two cells per compound
T1 construct: expressed in transfected cells; host or cells: L929 cells, stably transfected
Method: The inhibition of Kv1.3 was measured in stable transfected cell lines expressing mouse Kv1.3 using the patch-clamp technique (Rauer H et al. J Biol Chem Vol. 275, No. 2, 1201-1208, 2000), Rauer H Mol Pharmacol, 50, 1625-1634, 1996, Rauer H et al. J Pharmacol, 127, 1065-1074, 1999).
Stable transfected L929 cells with Kv1.3 channels were grown in DMEM (Glutamax-I) media with 10% FCS, geneticin 330 μg/ml under 10% CO2 atmosphere.
Whole-cell patch-clamp configuration, with an external bath solution of 160 mM NaCl, 4, 5 mM KCl, 1 mM MgCl, 2 mM CaCl2, 5 mM HEPES, 10 mM EGTA and NaOH adjusted to pH 7.4. Internal pipette solution for recording was 155 mM KF, 2 mM MgCl2, 10 mM HEPES, 10 mM EGTA with KOH adjusted to pH 7.2. Currents were activated by a 200-ms voltage step from a holding potential of −80 to 40 mV every 30 s. Holding potential −80 mV.
Each compound was tested on two different cells. The cell was perfused with external bath solution (black line), then the compound was applied (c=20 μM). The resulting stedy-state current traces are shown as red lines. Example 3, 5, 6, 7, 8 are blockers.

IMPDH = IMPDH enzyme assay (NADH release at 340 nm); assay type: biochemical, human; conditions: 0.2 mM IMP, 0.4 mM NAD, 37° C.
Method: IMPDH Enzyme-Assay: For measuring IMPDH activity in vitro, the substrate inosine monophosphate (IMP) and enzyme, with or without inhibitor, are mixed together. […] The released NADH is measured at 340 nm. The assay is performed in PMMA half micro liter cuvettes, the total assay volume is 1 mL. 500 μl of 2× assay buffer (200 mM Tris/HCl, pH 8.0, 200 mM KCl, 6 mM EDTA and 4 mM DTT) are mixed with 10 μL of a freshly prepared 20 mM IMP solution (0.2 mM final concentration) and 10 μL of enzyme (0.03 U/mL). An appropriate amount of inhibitor is dissolved in 100% DMSO. 10 μL of this solution are added to the assay mix (1% DMSO final concentration). Finally 455 μL of deionized water are added to give the final volume of 1 mL. The mixture is incubated for 10 min at 37° C. The enzyme reaction is started by addition of 25 μL of a 16 mM NAD solution (0.4 mM final concentration). Reaction is followed for 30 min at 37° C. at 340 nm. The enzyme reaction runs linear with respect to time during the 30 min. The slopes of the resulting curves are calculated and results are presented in % of residual activity, which is calculated as % activity=(slope with inhibitor/slope without inhibitor) *100. For the determination of the IC50 values (concentration of inhibitor required for 50% inhibition) at least four different inhibitor concentrations were applied. Each data point was recorded in triplicates. […]

T1 sequence (P16390 whole entry): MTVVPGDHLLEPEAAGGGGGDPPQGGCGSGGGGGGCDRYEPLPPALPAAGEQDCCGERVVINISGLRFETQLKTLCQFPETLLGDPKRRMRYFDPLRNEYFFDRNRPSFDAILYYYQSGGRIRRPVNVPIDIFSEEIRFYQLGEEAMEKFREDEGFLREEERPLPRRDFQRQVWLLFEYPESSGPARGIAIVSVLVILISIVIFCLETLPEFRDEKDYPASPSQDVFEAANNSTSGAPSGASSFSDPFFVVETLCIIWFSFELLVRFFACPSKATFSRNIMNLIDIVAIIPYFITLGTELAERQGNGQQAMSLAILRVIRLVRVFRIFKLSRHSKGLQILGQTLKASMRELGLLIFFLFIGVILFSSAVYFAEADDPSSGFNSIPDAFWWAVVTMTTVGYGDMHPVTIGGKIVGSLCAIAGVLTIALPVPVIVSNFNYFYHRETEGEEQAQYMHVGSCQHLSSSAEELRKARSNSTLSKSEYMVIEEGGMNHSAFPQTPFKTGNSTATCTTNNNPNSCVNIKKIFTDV

| SMILES | Kv1.3 channel block (Kv1.3 channels) | IC50 (IMPDH) [µM] |
| --- | --- | --- |
| O=C(Nc1cccc(C2=N[C@H](c3ccccc3)CO2)c1)Nc1cccc(C(F)(F)F)c1 [Example 5, 1-[3-(4-(R)-Phenyl-4,5-dihydro-oxazol-2-yl)-phenyl]-3-(3-trifluoromethyl-phenyl)-urea] | blockers | – |
| O=C(Nc1cccc(C2=N[C@@H](c3ccccc3)CO2)c1)Nc1cccc(C(F)(F)F)c1 [Example 6, 1-[3-(4-(S)-Phenyl-4,5-dihydro-oxazol-2-yl)-phenyl]-3-(3-trifluoromethyl-phenyl)-urea] | blockers | – |
| O=C(Nc1cccc(C2=N[C@H](Cc3ccccc3)CO2)c1)Nc1cccc(C(F)(F)F)c1 [Example 7, 1-[3-(4-(R)-Benzyl-4,5-dihydro-oxazol-2-yl)-phenyl]-3-(3-trifluoromethyl-phenyl)-urea] | blockers | – |
| COc1cc(NC(=O)Nc2ccc(S(=O)(=O)N3CCOCC3)cc2)ccc1C#N [Example 15, 1-(4-Cyano-3-methoxy-phenyl)-3-[4-(morpholine-4-sulfonyl)-phenyl]-urea] | – | < 5 |

Now from value to molecule:

| Kv1.3 channel block (Kv1.3 channels) | IC50 (IMPDH) [µM] | SMILES |
| --- | --- | --- |
| blockers | – | O=C(Nc1ccc(C2=N[C@H](Cc3ccccc3)CO2)cc1)Nc1ccc(S(=O)(=O)NCc2cc(F)c(F)c(F)c2)cc1 [Example 3, 4-{3-[4-(4-(R)-Benzyl-4,5-dihydro-oxazol-2-yl)-phenyl]-ureido}-N-(3,4,5-trifluoro-benzyl)-benzenesulfonamide] |
| blockers | – | O=C(Nc1cccc(C2=N[C@@H](Cc3ccccc3)CO2)c1)Nc1cccc(C(F)(F)F)c1 [Example 8, 1-[3-(4-(S)-Benzyl-4,5-dihydro-oxazol-2-yl)-phenyl]-3-(3-trifluoromethyl-phenyl)-urea] |
